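Where inhibition never reached the appropriate level, the endpoint shown equals the highest concentration tested. Otherwise, values were interpolated linearly from a five-concentration, 48-hour dose response in 96-well plates. The concentration for 50% growth inhibition is given as GI50.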 Active and inactive are the calls of the source. No stated cut-off is given here; in the data, active = GI50 up to about 1.1 µM and inactive = higher.
What was measured:
Assay in all cases: NCI anticancer screen, dose series, 48 h
NCI/ADR-RES = test system: NCI/ADR-RES
OVCAR-3 = test system: OVCAR-3
SK-MEL-5 = test system: SK-MEL-5
UACC-62 = test system: UACC-62
UACC-257 = test system: UACC-257
TK-10 = test system: TK-10
NCI-H23 = test system: NCI-H23
COLO 205 = test system: COLO 205
LOX IMVI = test system: LOX IMVI
HCT-116 = test system: HCT-116
MDA-MB-231 = test system: MDA-MB-231
A498 = test system: A498
786-0 = test system: 786-0
ACHN = test system: ACHN
UO-31 = test system: UO-31
SK-OV-3 = test system: SK-OV-3
SN12C = test system: SN12C
NCI-H460 = test system: NCI-H460
MDA-N = test system: MDA-N
BT-549 = test system: BT-549
IGROV-1 = test system: IGROV-1
CAKI-1 = test system: CAKI-1
SF-268 = test system: SF-268
SK-MEL-28 = test system: SK-MEL-28
Malme-3M = test system: Malme-3M
Hs-578T = test system: Hs-578T
KM12 = test system: KM12
SF-539 = test system: SF-539
SK-MEL-2 = test system: SK-MEL-2
HOP-92 = test system: HOP-92
NCI-H226 = test system: NCI-H226
HOP-62 = test system: HOP-62
RPMI-8226 = test system: RPMI-8226
HCC 2998 = test system: HCC 2998
SR = test system: SR
MOLT-4 = test system: MOLT-4
SF-295 = test system: SF-295
OVCAR-5 = test system: OVCAR-5
RXF 393 = test system: RXF 393
CCRF-CEM = test system: CCRF-CEM
SNB-75 = test system: SNB-75
DU-145 = test system: DU-145
OVCAR-8 = test system: OVCAR-8
K562 = test system: K562
HT-29 = test system: HT-29
M14 = test system: M14
SNB-19 = test system: SNB-19
U-251 = test system: U-251
OVCAR-4 = test system: OVCAR-4
A549 = test system: A549
SW-620 = test system: SW-620
MDA-MB-435 = test system: MDA-MB-435
HL-60 = test system: HL-60
NCI-H522 = test system: NCI-H522
HCT-15 = test system: HCT-15
EKVX = test system: EKVX
MCF7 = test system: MCF7
PC-3 = test system: PC-3
T47D = test system: T47D

With `COc1cc(C2c3cc4c(cc3OC(NCc3ccccc3)C2C)OCO4)cc(OC)c1OC` (centres undefined) the GI50 (NCI/ADR-RES) was 0.258 µM (active), the GI50 (OVCAR-3) was 0.298 µM (active) and the GI50 (SK-MEL-5) was 0.261 µM (active). The GI50 (UACC-62) was 0.409 µM (active), the GI50 (UACC-257) was 6.92 µM (inactive) and the GI50 (TK-10) was 20.2 µM (inactive). The GI50 (NCI-H23) was 0.417 µM (active), the GI50 (COLO 205) was 0.252 µM (active) and the GI50 (LOX IMVI) was 0.551 µM (active). For the same compound, the GI50 (HCT-116) was 0.364 µM (active), the GI50 (MDA-MB-231) was 0.303 µM (active) and the GI50 (A498) was 0.667 µM (active). The GI50 (786-0) was 0.357 µM (active), the GI50 (ACHN) was 1.01 µM (active) and the GI50 (UO-31) was 0.504 µM (active). The GI50 (SK-OV-3) was 0.476 µM (active), the GI50 (SN12C) was 0.697 µM (active) and the GI50 (NCI-H460) was 0.394 µM (active). The GI50 (MDA-N) was 0.0973 µM (active), the GI50 (BT-549) was 0.631 µM (active) and the GI50 (IGROV-1) was 0.448 µM (active). The GI50 (CAKI-1) was 0.288 µM (active), the GI50 (SF-268) was 0.933 µM (active) and the GI50 (SK-MEL-28) was 4.04 µM (inactive). The GI50 (Malme-3M) was 0.254 µM (active), the GI50 (Hs-578T) was 0.279 µM (active) and the GI50 (KM12) was 0.377 µM (active). The GI50 (SF-539) was 0.273 µM (active), the GI50 (SK-MEL-2) was 0.675 µM (active) and the GI50 (HOP-92) was 2 µM (inactive). For the same compound, the GI50 (NCI-H226) was 0.853 µM (active), the GI50 (HOP-62) was 0.553 µM (active) and the GI50 (RPMI-8226) was 0.381 µM (active). The GI50 (HCC 2998) was 0.687 µM (active), the GI50 (SR) was 0.241 µM (active) and the GI50 (MOLT-4) was 0.653 µM (active). For the same compound, the GI50 (SF-295) was 0.219 µM (active), the GI50 (OVCAR-5) was 1.09 µM (active) and the GI50 (RXF 393) was 0.206 µM (active). For the same compound, the GI50 (CCRF-CEM) was 0.39 µM (active), the GI50 (SNB-75) was 0.177 µM (active) and the GI50 (DU-145) was 0.406 µM (active). The GI50 (OVCAR-8) was 0.482 µM (active), the GI50 (K562) was 0.305 µM (active) and the GI50 (HT-29) was 0.337 µM (active). The GI50 (M14) was 0.442 µM (active), the GI50 (SNB-19) was 0.452 µM (active) and the GI50 (U-251) was 0.39 µM (active). The GI50 (OVCAR-4) was 0.644 µM (active), the GI50 (A549) was 0.631 µM (active) and the GI50 (SW-620) was 0.331 µM (active). The GI50 (MDA-MB-435) was 0.102 µM (active), the GI50 (HL-60) was 0.277 µM (active) and the GI50 (NCI-H522) was 0.339 µM (active). The GI50 (HCT-15) was 0.543 µM, the GI50 (EKVX) was 2.56 µM (inactive) and the GI50 (MCF7) was 0.439 µM (active). The GI50 (PC-3) was 0.24 µM (active).

For `COc1ccc(NC(C)=O)cc1N1C(=O)/C(=C\c2cccc(Oc3ccccc3)c2)SC1c1ccccc1` (centres undefined), the GI50 (NCI/ADR-RES) was 19.2 µM (inactive), the GI50 (OVCAR-3) was 21.8 µM (inactive) and the GI50 (SK-MEL-5) was 30.5 µM (inactive). The GI50 (UACC-62) was 26.7 µM (inactive), the GI50 (UACC-257) was 40.6 µM (inactive) and the GI50 (TK-10) was 49.3 µM (inactive). The GI50 (NCI-H23) was 46 µM (inactive), the GI50 (COLO 205) was 19.4 µM (inactive) and the GI50 (LOX IMVI) was 13.4 µM (inactive). For the same compound, the GI50 (HCT-116) was 11.6 µM (inactive), the GI50 (MDA-MB-231) was 37.8 µM (inactive) and the GI50 (A498) was 56.4 µM (inactive). The GI50 (786-0) was 24.3 µM (inactive), the GI50 (ACHN) was 31.3 µM (inactive) and the GI50 (UO-31) was 17.3 µM (inactive). For the same compound, the GI50 (SK-OV-3) was 49 µM (inactive), the GI50 (SN12C) was 20.4 µM (inactive) and the GI50 (NCI-H460) was 36.4 µM (inactive). The GI50 (MDA-N) was 26.2 µM (inactive), the GI50 (BT-549) was 30.5 µM (inactive) and the GI50 (IGROV-1) was 27.4 µM (inactive). For the same compound, the GI50 (CAKI-1) was 28.4 µM (inactive), the GI50 (SK-MEL-28) was 28.3 µM (inactive) and the GI50 (Malme-3M) was 65.6 µM (inactive). For the same compound, the GI50 (KM12) was 37.6 µM (inactive), the GI50 (SK-MEL-2) was 30.5 µM (inactive) and the GI50 (HOP-92) was 20.9 µM (inactive). The GI50 (T47D) was 23.4 µM (inactive), the GI50 (NCI-H226) was 82.2 µM (inactive) and the GI50 (HOP-62) was 34.3 µM (inactive). The GI50 (RPMI-8226) was 17.4 µM (inactive), the GI50 (HCC 2998) was 36.1 µM (inactive) and the GI50 (SR) was 3.7 µM (inactive). The GI50 (MOLT-4) was 10.1 µM (inactive), the GI50 (SF-295) was 28.4 µM (inactive) and the GI50 (OVCAR-5) was 29.3 µM (inactive). For the same compound, the GI50 (RXF 393) was 39.7 µM (inactive), the GI50 (CCRF-CEM) was 10.3 µM (inactive) and the GI50 (SNB-75) was 38.6 µM (inactive). The GI50 (DU-145) was 35.3 µM (inactive), the GI50 (OVCAR-8) was 22.5 µM (inactive) and the GI50 (K562) was 19.8 µM (inactive). The GI50 (HT-29) was 18.3 µM (inactive), the GI50 (M14) was 34.1 µM (inactive) and the GI50 (SNB-19) was 69.3 µM (inactive). The GI50 (U-251) was 25.8 µM (inactive), the GI50 (OVCAR-4) was 14.2 µM (inactive) and the GI50 (A549) was 40.4 µM (inactive). The GI50 (SW-620) was 21.6 µM (inactive), the GI50 (MDA-MB-435) was 23.3 µM (inactive) and the GI50 (HL-60) was 16.9 µM (inactive). For the same compound, the GI50 (NCI-H522) was 28.4 µM (inactive), the GI50 (HCT-15) was 33.1 µM and the GI50 (EKVX) was 33.3 µM (inactive). For the same compound, the GI50 (MCF7) was 23.8 µM (inactive) and the GI50 (PC-3) was 21.7 µM (inactive).
